Measured values reported in patent US12653830B2, “Substituted imidazoquinoxaline compounds and uses thereof” (Impact Therapeutics (Shanghai), Inc, priority 2019, dated 2026).
Read-outs that look alike come from different tables or passages of the source.

Assays:
[1] = test system: human colon cancer cell SW620; assay: MTT proliferation assay in combination with CPT-11, SW620; assay type: cell-based; settings: medium containing 205 nM CPT-11, 5 days, read-out: IC50, inhibition of proliferation of SW620 combined with CPT-11
Experimental: Determination of the Inhibitory Effect of the Compound of Example 2 and its Analogues in Combination with CPT-11 on the Proliferation of Human Colon Cancer Cell SW620 Using MTT Assay
The human colon cancer cells SW620 were cultured in RPMI 1640 medium with 10% FBS and used at about 90% confluence for experiments. The SW620 cells were digested with trypsinase and centrifuged at 800 rpm for 5 minutes. The supernatant was discarded and the cell pellets were resuspended with fresh medium (RPMI 1640+10% FBS). The cells were seeded into 96-well cell culture plates with appropriate cell density and incubated at 37° C. overnight in a 5% CO2 incubator. […] The first concentration was 1 μM or 0.333 μM, the last concentration was DMSO negative control (0 μM). 5 μL of solutions of each concentration was added to 120 μL of medium (a 25 times dilution) and mixed by shaking. The cells were cultured overnight and the culture medium was replaced with 195 μL/well of fresh medium containing 205 nM CPT-11 and 5 μL/well of medium containing the test compound (the final concentration of DMSO was 1%). The culture plates were returned to incubator and cultured at 37° C., 5% CO2 for 5 days. At the day of experiment, medium was discarded and replaced with 100 μL of fresh serum-free DMEM medium containing MTT (0.5 mg/mL), and the culture was continued. 4 hours later, the medium was discarded and replaced with 100 μL/well of DMSO, the plate was shaken for 10 minutes in dark and the absorbance was measured at the wavelengths of 552 and 690 nm using a multi-function plate reader. Data were analyzed by Graph Pad Prism 6.0. The inhibitory effects of compounds on cell proliferation were plotted based on cell viability vs. the logarithm of compound concentration. Cell viability %=(ODcompound−ODbackground)/(ODDMSO−ODbackground)×100.
Table 3 summarizes the inhibitory effect data (IC50) of some compounds combined with CPT-11 on the proliferation of human colon cancer cell SW620.

ATM kinase = target: T1, ATM kinase (Homo sapiens, UniProt Q13315); assay: In vitro ATM kinase assay (Cisbio HTRF, p53 substrate); assay type: biochemical; settings: 30 μM ATP; for inhibition at 0.0001 µM: Conc. 0.1 nM; for inhibition at 0.0001 µM / inhibition at 0.001 µM / inhibition at 0.01 µM: read-out: Inh % (inhibitory effect on ATM kinase activity); for inhibition at 0.001 µM: Conc. 1 nM; for inhibition at 0.01 µM: Conc. 10 nM
T1 construct: purchased Eurofins 14-933
Experimental: Determination of the Inhibitory Effect In Vitro of the Compound of Example 2 and its Analogues on ATM Using In Vitro ATM Kinase Assay
ATM enzymatic activity was measured using Cisbio's HTRF reagent in a 384-well plate (Greiner, #784075). […] The mixtures were centrifuged at 1000 rpm for 1 minute, and reacted in dark for 30 minutes at room temperature. Then, 5 μL of EDTA termination solution (250 mm) was added to terminate the reaction. After 5 μL of detection mixture (Anti-phospho-p53 (ser15)-K (Cisbio, #61P08KAE, 0.084 ng/μL) and Anti-GST-d2 (Cisbio, #61GSTDLA, 5.00 ng/μL)) was finally added to each well, the mixtures were cultured at room temperature over night, and the fluorescence values at 665 nm and 615 nm were measured on Envision 2104. The final concentration of each reagent of the experiment was as follows: 12.5 mM HEPES (pH8.0), 0.5% glycerol, 0.005% Brij-35, 0.625 mM DTT, 0.0125% BSA, 15 nM p53, 0.25 ng/μL ATM, 30 μM ATP, 2.5 mM Mg(AcO)2, 2.5 mM MnCl2, 62.5 mM EDTA, 0.021 ng/μL Anti-phospho-p53, 1.25 ng/μL Anti-GST-d2.
Relative fluorescence ratio was calculated: Ratio665 nm/615 nm−Ratiobackground, and inhibition rate %=(1−(relative fluorescence ratio of test compound well−relative fluorescence ratio of positive control well)/(relative fluorescence ratio of negative control well−relative fluorescence ratio of positive control well))×100 was calculated. Data were analyzed using GraphPad Prism6.0 and fitted using the curve equation: Y=Bottom+(Top−Bottom)/(1+10^((Log IC50−X)*HillSlope)), and IC50 values were calculated.

[2] = test system: human breast cancer cell MDA-MB-468; assay: MTT proliferation assay, MDA-MB-468; assay type: cell-based; settings: Homo sapiens, MDA-MB-468, 168 h, 7 days, single agent, read-out: IC50, inhibition of proliferation of MDA-MB-468
Experimental: Determination of the Inhibitory Effect of the Compound of Example 2 and its Analogues on the Proliferation of Human Breast Cancer Cell MDA-MB-468 Using MTT Assay
The human breast cancer cells MDA-MB-468 were cultured in RPMI 1640 medium with 10% FBS and used at 90% confluence. The MDA-IVB-468 cells were digested with trypsinase and centrifuged at 800 rpm for 5 minutes. The supernatant was discarded and the cell pellets were resuspended with fresh medium and counted. Cells were seeded to 96-well cell culture plates with appropriate cell density and incubated overnight at 37° C., 5% CO2. […] 5 μL of solutions of each concentration was added to 120 μL of medium (diluted by 25 times) and mixed by shaking. The culture medium of cells cultured overnight was discarded and replaced with 195 μL/well of fresh medium (RPMI 1640+5% FBS) and 5 μL/well of diluted medium containing the test compound of corresponding concentrations (the final concentration of DMSO was 1%), and the culture plate was then returned to 5% CO2 incubator at 37° C. for 7 days (on the fourth day, dressing was changed once and culture was continued). On the day of experiment, culture medium was discarded and replaced with 100 μL/well of fresh serum-free DMEM medium containing MTT (0.5 mg/mL), and the culture was continued. After 4 hours, medium was discarded and replaced with 100 μL/well of DMSO, the plates were shaken for 10 minutes in darkness and the absorbance was measured at the wavelengths of 552 and 693 nm using a multi-function plate reader. Graph Pad Prism 6.0 was used to analyze the data. The inhibitory effects of compounds on cell proliferation were plotted based on cell viability vs. the logarithm of compound concentration. Cell viability %=(ODcompound−ODbackground)/(ODDMSO−ODbackground)×100.
Table 4 summarizes the inhibitory effect data (IC50) of some compounds on the proliferation of human breast cancer cell MDA-MB-468.

T1 sequence (Q13315 whole entry): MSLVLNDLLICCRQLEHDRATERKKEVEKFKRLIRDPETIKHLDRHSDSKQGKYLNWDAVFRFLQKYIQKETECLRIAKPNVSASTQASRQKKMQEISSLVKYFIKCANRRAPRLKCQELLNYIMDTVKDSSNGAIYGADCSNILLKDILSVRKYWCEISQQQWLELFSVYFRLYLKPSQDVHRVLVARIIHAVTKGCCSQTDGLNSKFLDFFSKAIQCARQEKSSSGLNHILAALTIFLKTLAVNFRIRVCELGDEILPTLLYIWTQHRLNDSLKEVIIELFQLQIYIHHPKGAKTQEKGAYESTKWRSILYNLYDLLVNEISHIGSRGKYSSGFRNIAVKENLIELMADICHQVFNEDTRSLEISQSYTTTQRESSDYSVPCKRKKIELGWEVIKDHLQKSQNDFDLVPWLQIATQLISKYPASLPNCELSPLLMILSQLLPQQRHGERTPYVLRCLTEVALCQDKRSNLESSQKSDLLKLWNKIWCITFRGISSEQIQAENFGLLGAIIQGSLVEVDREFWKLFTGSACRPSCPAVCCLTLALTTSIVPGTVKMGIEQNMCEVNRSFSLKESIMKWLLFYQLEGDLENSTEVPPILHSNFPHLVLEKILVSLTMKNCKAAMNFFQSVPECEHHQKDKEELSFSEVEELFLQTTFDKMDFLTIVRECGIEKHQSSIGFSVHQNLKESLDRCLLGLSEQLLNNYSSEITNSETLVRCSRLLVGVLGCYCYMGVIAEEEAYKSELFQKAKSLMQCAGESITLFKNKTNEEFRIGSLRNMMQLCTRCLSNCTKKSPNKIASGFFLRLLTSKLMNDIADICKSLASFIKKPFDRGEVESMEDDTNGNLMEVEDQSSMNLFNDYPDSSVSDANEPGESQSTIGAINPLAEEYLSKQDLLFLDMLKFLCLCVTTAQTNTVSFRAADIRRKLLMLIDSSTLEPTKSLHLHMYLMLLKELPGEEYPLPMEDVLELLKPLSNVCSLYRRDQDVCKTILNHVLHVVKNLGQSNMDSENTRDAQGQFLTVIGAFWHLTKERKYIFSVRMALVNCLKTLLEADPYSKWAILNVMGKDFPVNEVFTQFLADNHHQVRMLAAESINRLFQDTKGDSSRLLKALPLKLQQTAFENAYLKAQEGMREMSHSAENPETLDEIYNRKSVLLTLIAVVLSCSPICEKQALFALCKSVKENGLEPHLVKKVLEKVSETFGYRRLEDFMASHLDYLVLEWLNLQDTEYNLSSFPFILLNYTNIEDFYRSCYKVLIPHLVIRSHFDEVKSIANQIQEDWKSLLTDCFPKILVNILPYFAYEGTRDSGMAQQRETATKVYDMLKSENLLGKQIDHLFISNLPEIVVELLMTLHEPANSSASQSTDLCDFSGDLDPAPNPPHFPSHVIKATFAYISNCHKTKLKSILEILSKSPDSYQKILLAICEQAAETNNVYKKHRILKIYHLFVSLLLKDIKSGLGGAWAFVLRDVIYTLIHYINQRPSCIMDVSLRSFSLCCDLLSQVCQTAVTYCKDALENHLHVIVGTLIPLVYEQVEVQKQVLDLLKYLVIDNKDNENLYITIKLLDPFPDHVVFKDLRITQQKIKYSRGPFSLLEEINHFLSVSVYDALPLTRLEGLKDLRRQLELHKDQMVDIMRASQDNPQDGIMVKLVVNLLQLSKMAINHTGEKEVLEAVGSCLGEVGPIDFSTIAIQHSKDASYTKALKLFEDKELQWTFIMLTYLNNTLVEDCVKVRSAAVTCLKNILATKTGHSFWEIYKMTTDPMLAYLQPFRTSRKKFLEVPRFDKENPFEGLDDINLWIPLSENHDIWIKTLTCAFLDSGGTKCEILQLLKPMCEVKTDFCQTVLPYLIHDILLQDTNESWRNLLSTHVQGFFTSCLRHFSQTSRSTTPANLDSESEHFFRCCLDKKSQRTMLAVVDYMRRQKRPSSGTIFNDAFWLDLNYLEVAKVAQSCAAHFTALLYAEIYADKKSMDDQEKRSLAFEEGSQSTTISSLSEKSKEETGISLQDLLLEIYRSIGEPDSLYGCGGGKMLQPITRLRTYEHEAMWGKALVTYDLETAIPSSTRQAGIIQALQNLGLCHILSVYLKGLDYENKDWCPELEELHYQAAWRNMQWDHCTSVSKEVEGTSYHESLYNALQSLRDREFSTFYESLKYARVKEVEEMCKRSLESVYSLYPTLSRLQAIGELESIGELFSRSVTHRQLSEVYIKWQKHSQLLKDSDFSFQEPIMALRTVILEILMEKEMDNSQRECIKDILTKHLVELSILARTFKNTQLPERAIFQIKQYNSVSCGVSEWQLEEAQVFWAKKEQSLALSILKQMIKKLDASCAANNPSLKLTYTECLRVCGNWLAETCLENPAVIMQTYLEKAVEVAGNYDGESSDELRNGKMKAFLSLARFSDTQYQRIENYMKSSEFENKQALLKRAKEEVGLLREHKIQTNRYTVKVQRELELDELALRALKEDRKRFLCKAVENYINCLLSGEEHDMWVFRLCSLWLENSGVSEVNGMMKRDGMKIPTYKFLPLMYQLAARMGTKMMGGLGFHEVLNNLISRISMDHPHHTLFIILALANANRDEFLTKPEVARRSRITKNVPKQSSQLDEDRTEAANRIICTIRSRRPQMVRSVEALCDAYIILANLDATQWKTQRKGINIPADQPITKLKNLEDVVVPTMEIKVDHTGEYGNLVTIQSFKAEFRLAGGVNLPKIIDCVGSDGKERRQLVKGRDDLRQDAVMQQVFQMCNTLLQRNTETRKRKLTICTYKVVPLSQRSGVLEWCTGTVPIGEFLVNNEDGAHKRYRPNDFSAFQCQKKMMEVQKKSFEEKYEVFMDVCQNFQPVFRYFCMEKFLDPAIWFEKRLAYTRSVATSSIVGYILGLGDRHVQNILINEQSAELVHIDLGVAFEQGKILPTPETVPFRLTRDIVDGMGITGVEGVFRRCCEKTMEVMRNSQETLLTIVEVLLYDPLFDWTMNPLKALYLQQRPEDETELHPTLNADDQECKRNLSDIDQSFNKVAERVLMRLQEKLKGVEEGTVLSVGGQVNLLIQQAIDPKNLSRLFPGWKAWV

Row | SMILES | IC50 [1] | inhibition at 0.0001 µM (ATM kinase) | inhibition at 0.001 µM (ATM kinase) | inhibition at 0.01 µM (ATM kinase) | IC50 [2] | IC50 ([1]; Homo sapiens, SW-620, 120 h) | IC50 (ATM kinase)
1 | Cc1nc(C2CCOCC2)n2c1cnc1ccc(-c3ccc(N4CCC(N(C)C)CC4)c(Cl)c3)cc12 [Example 7, N,N-dimethyl-1-(2-chloro-4-(3-methyl-1-(tetrahydro-2H-pyran-4-yl)imidazo[1,5-a]quinoxalin-8-yl)phenyl)piperidin-4-amine] | 25.9 nM | 18% | 86% | 96% | 22.6 nM | – | –
2 | Cc1nc(C2CCOCC2)n2c1cnc1ccc(-c3ccc(N4CCC(N(C)C)CC4)c(C(F)(F)F)c3)cc12 [Example 8] | 24.1 nM | 27% | 94% | 99% | 24.8 nM | – | –
3 | Cc1nc(C2CCOCC2)n2c1cnc1ccc(-c3ccc(N4CCC(N)CC4)c(C(F)(F)F)c3)cc12 [Example 9, 1-(4-(3-methyl-1-(tetrahydro-2H-pyran-4-yl)imidazo[1,5-a]quinoxalin-8-yl)-2-(trifluoromethyl)phenyl)piperidin-4-amine] | 24 nM | 28% | 96% | 99% | 23.1 nM | – | –
4 | CNC1CCN(c2ccc(-c3ccc4ncc5c(C)nc(C6CCOCC6)n5c4c3)cc2C(F)(F)F)CC1 [Example 10, N-methyl-1-(4-(3-methyl-1-(tetrahydro-2H-pyran-4-yl)imidazo[1,5-a]quinoxalin-8-yl)-2-(trifluoromethyl)phenyl)piperidin-4-amine] | 16.7 nM | 13% | 74% | 99% | 16.4 nM | – | –
5 | CCNC1CCN(c2ccc(-c3ccc4ncc5c(C)nc(C6CCOCC6)n5c4c3)cc2C(F)(F)F)CC1 [Example 11, N-ethyl-1-(4-(3-methyl-1-(tetrahydro-2H-pyran-4-yl)imidazo[1,5-a]quinoxalin-8-yl)-2-(trifluoromethyl)phenyl)piperidin-4-amine] | 30 nM | 11% | 78% | 97% | 31.1 nM | – | –
6 | Cc1nc(C2CCOCC2)n2c1cnc1ccc(-c3ccc(OCCCN4CCCCC4)nc3)cc12 [Example 12, 3-methyl-8-(6-(3-(piperidin-1yl)propoxy)pyridin-3yl)-1-(tetrahydro-2H-pyran-4-yl)imidazo[1,5-a]quinoxaline] | 15.7 nM | 40% | 91% | 98% | 14.4 nM | – | –
7 | Cc1nn(C)cc1-c1ccc2ncc3c(C)nc(C4CCOCC4)n3c2c1 [Example 13, 8-(1,3-dimethyl-1H-pyrazol-4-yl)-3-methyl-1-(tetrahydro-2H-pyran-4-yl)imidazo[1,5-a]quinoxaline] | > 1000 nM | – | – | 15% | 782 nM | – | –
8 | Cc1nc(N2CCOCC2)n2c1cnc1ccc(-c3ccc(OCCCN(C)C)nc3)cc12 [Example 14, N,N-dimethyl-3-((5-(3-methyl-1-morpholinylimidazo[1,5-a]quinoxalin-8-yl)pyridin-2-yl)oxy)propan-1-amine] | 39.7 nM | – | – | 93% | 26 nM | – | –
9 | Cc1nc(N2C[C@@H](C)O[C@@H](C)C2)n2c1cnc1ccc(-c3ccc(OCCCN(C)C)nc3)cc12 [Example 15, N,N-dimethyl-3-((5-(1-((2S,6R)-2,6-dimethylmorpholino)-3-methylimidazo[1,5-a]quinoxalin-8-yl)pyridin-2-yl)oxy)propan-1-amine] | – | – | – | – | 7.98 nM | 9.3 nM | 0.31 nM
10 | Cc1nc(N2CCCCC2)n2c1cnc1ccc(-c3ccc(OCCCN(C)C)nc3)cc12 [Example 16, N,N-dimethyl-3-((5-(3-methyl-1-(piperidin-1-yl)imidazo[1,5-a]quinoxalin-8-yl)pyridin-2-yl)oxy)propan-1-amine] | 8.2 nM | 71% | 89% | 97% | 10.6 nM | – | –
11 | Cc1nc(N2CCN(C)CC2)n2c1cnc1ccc(-c3ccc(OCCCN(C)C)nc3)cc12 [Example 17, N,N-dimethyl-3-((5-(3-methyl-1-(4-methylpiperazin-1-yl)imidazo[1,5-a]quinoxalin-8-yl)pyridin-2-yl)oxy)propan-1-amine] | 27.4 nM | 9% | 55% | 91% | 20.9 nM | – | –
12 | Cc1nc(N2C[C@@H](C)N(C)[C@@H](C)C2)n2c1cnc1ccc(-c3ccc(OCCCN(C)C)nc3)cc12 [Example 18, N,N-dimethyl-3-((5-(3-methyl-1-((3S,5R)-3,4,5-trimethylpiperazin-1-yl)imidazo[1,5-a]quinoxalin-8-yl)pyridin-2-yl)oxy)propan-1-amine] | 6.5 nM | 30% | 87% | 98% | 6.4 nM | – | –
13 | Cc1nc(C(C)C)n2c1cnc1ccc(-c3ccc(OCCCN(C)C)nc3)cc12 [Example 19, N,N-dimethyl-3-((5-(1-isopropyl-3-methylimidazo[1,5-a]quinoxalin-8-yl)pyridin-2-yl)oxy)propan-1-amine] | 17.6 nM | – | 88% | – | 11.4 nM | – | –
14 | Cc1nc(C(C)C)n2c1cnc1ccc(-c3ccc(OCCCN(C)C)c(F)c3)cc12 [Example 20, N,N-dimethyl-3-(2-fluoro-4-(1-isopropyl-3-methylimidazo[1,5-a]quinoxalin-8-yl)phenoxy)propan-1-amine] | 35.9 nM | – | 82% | – | 21.3 nM | – | –
15 | Cc1nc(C(C)C)n2c1cnc1ccc(-c3ccc(OCCCN(C)C)c(C(F)(F)F)c3)cc12 [Example 21, N,N-dimethyl-3-(4-(1-isopropyl-3-methylimidazo[1,5-a]quinoxalin-8-yl)-2-(trifluoromethyl)phenoxy)propan-1-amine] | 29.6 nM | – | 67% | – | 16.4 nM | – | –
